Source: ChEMBL document CHEMBL3112418, “Synthesis of novel 1,2,3-triazole tagged pyrazolo[3,4-b]pyridine derivatives and their cytotoxic activity” (Bioorg Med Chem Lett, 2014)
≈ marks a conversion by molar mass, not a printed value. Calls of active or inactive are those of the source. The calls are words filed in the database; no cut-off is given here.

Test system: HL-60
Experiment: Cytotoxicity against human HL60 cells assessed as reduction in cell viability at 100 ug/ml after 24 hrs by MTT assay
Type: functional, cell-based
Conditions: not given

Structure (SMILES) | Activity
Cc1ccc(-n2cc(Cn3nc(N)c4c(C(F)(F)F)cc(-c5ccccc5)nc43)nn2)cc1 | inactive
Nc1nn(Cc2cn(CC(=O)Nc3cccc(Cl)c3)nn2)c2nc(-c3ccccc3)cc(C(F)(F)F)c12 | inactive
Nc1nn(Cc2cn(-c3cccc(Cl)c3)nn2)c2nc(-c3ccccc3)cc(C(F)(F)F)c12 | inactive
CCCCCCCCn1cc(Cn2nc(N)c3c(C(F)(F)F)cc(-c4ccccc4)nc32)nn1 | inactive
COc1ccc(NC(=O)Cn2cc(Cn3nc(N)c4c(C(F)(F)F)cc(-c5ccccc5)nc43)nn2)cc1 | inactive
Nc1nn(Cc2cn(-c3cccc(C(F)(F)F)c3)nn2)c2nc(-c3ccccc3)cc(C(F)(F)F)c12 | inactive
Cc1ccc(NC(=O)Cn2cc(Cn3nc(N)c4c(C(F)(F)F)cc(-c5ccccc5)nc43)nn2)cc1 | inactive
Cc1c(Br)cccc1-n1cc(Cn2nc(N)c3c(C(F)(F)F)cc(-c4ccccc4)nc32)nn1 | inactive
Nc1nn(Cc2cn(-c3ccc(Br)c(F)c3)nn2)c2nc(-c3ccccc3)cc(C(F)(F)F)c12 | inactive
Nc1nn(Cc2cn(-c3ccc([N+](=O)[O-])cc3)nn2)c2nc(-c3ccccc3)cc(C(F)(F)F)c12 | inactive
Nc1nn(Cc2cn(-c3ccccc3)nn2)c2nc(-c3ccccc3)cc(C(F)(F)F)c12 | inactive
CCCCCCn1cc(Cn2nc(N)c3c(C(F)(F)F)cc(-c4ccccc4)nc32)nn1 | inactive
COc1ccc(-n2cc(Cn3nc(N)c4c(C(F)(F)F)cc(-c5ccccc5)nc43)nn2)cc1 | inactive
Nc1nn(Cc2cn(-c3ccc(F)cc3)nn2)c2nc(-c3ccccc3)cc(C(F)(F)F)c12 | inactive

Test system: U-937
Experiment: Cytotoxicity against human U937 cells assessed as reduction in cell viability at 100 ug/ml after 24 hrs by MTT assay
Type: functional, cell-based
Conditions: not given

Structure (SMILES) | Activity
Cc1ccc(-n2cc(Cn3nc(N)c4c(C(F)(F)F)cc(-c5ccccc5)nc43)nn2)cc1 | inactive
Nc1nn(Cc2cn(CC(=O)Nc3cccc(Cl)c3)nn2)c2nc(-c3ccccc3)cc(C(F)(F)F)c12 | inactive
CCCCCCCCn1cc(Cn2nc(N)c3c(C(F)(F)F)cc(-c4ccccc4)nc32)nn1 | inactive
COc1ccc(NC(=O)Cn2cc(Cn3nc(N)c4c(C(F)(F)F)cc(-c5ccccc5)nc43)nn2)cc1 | inactive
Nc1nn(Cc2cn(-c3cccc(C(F)(F)F)c3)nn2)c2nc(-c3ccccc3)cc(C(F)(F)F)c12 | inactive
Nc1nn(Cc2cn(-c3ccc(Br)c(F)c3)nn2)c2nc(-c3ccccc3)cc(C(F)(F)F)c12 | inactive
Nc1nn(Cc2cn(-c3ccccc3)nn2)c2nc(-c3ccccc3)cc(C(F)(F)F)c12 | inactive
CCCCCCn1cc(Cn2nc(N)c3c(C(F)(F)F)cc(-c4ccccc4)nc32)nn1 | inactive
COc1ccc(-n2cc(Cn3nc(N)c4c(C(F)(F)F)cc(-c5ccccc5)nc43)nn2)cc1 | inactive
Nc1nn(Cc2cn(-c3ccc(F)cc3)nn2)c2nc(-c3ccccc3)cc(C(F)(F)F)c12 | inactive

Test system: not listed separately
Experiment: Cytotoxicity against human U937 cells assessed as reduction in cell viability after 24 hrs by MTT assay
Type: functional, cell-based
Conditions: U-937, 24 h

Structure (SMILES) | IC50 [µg/mL]
Cc1ccc(NC(=O)Cn2cc(Cn3nc(N)c4c(C(F)(F)F)cc(-c5ccccc5)nc43)nn2)cc1 | 65.3 (≈ 129 µM)
Cc1c(Br)cccc1-n1cc(Cn2nc(N)c3c(C(F)(F)F)cc(-c4ccccc4)nc32)nn1 | 97.2 (≈ 184 µM)
Nc1nn(Cc2cn(-c3ccc([N+](=O)[O-])cc3)nn2)c2nc(-c3ccccc3)cc(C(F)(F)F)c12 | 98.8 (≈ 206 µM)

Test system: THP-1
Experiment: Cytotoxicity against human THP1 cells assessed as reduction in cell viability after 24 hrs by MTT assay
Type: functional, cell-based
Conditions: THP-1, 24 h

Structure (SMILES) | IC50 [µg/mL]
Cc1ccc(-n2cc(Cn3nc(N)c4c(C(F)(F)F)cc(-c5ccccc5)nc43)nn2)cc1 | 98.6 (≈ 219 µM)
Nc1nn(Cc2cn(CC(=O)Nc3cccc(Cl)c3)nn2)c2nc(-c3ccccc3)cc(C(F)(F)F)c12 | 37 (≈ 70.3 µM)
COc1ccc(NC(=O)Cn2cc(Cn3nc(N)c4c(C(F)(F)F)cc(-c5ccccc5)nc43)nn2)cc1 | 56.7 (≈ 109 µM)
Cc1ccc(NC(=O)Cn2cc(Cn3nc(N)c4c(C(F)(F)F)cc(-c5ccccc5)nc43)nn2)cc1 | 41.5 (≈ 81.9 µM)

Test system: THP-1
Experiment: Cytotoxicity against human THP1 cells assessed as reduction in cell viability at 100 ug/ml after 24 hrs by MTT assay
Type: functional, cell-based
Conditions: not given

Structure (SMILES) | Activity
Nc1nn(Cc2cn(-c3cccc(Cl)c3)nn2)c2nc(-c3ccccc3)cc(C(F)(F)F)c12 | inactive
CCCCCCCCn1cc(Cn2nc(N)c3c(C(F)(F)F)cc(-c4ccccc4)nc32)nn1 | inactive
Nc1nn(Cc2cn(-c3cccc(C(F)(F)F)c3)nn2)c2nc(-c3ccccc3)cc(C(F)(F)F)c12 | inactive
Cc1c(Br)cccc1-n1cc(Cn2nc(N)c3c(C(F)(F)F)cc(-c4ccccc4)nc32)nn1 | inactive
Nc1nn(Cc2cn(-c3ccc(Br)c(F)c3)nn2)c2nc(-c3ccccc3)cc(C(F)(F)F)c12 | inactive
Nc1nn(Cc2cn(-c3ccc([N+](=O)[O-])cc3)nn2)c2nc(-c3ccccc3)cc(C(F)(F)F)c12 | inactive
Nc1nn(Cc2cn(-c3ccccc3)nn2)c2nc(-c3ccccc3)cc(C(F)(F)F)c12 | inactive
CCCCCCn1cc(Cn2nc(N)c3c(C(F)(F)F)cc(-c4ccccc4)nc32)nn1 | inactive
COc1ccc(-n2cc(Cn3nc(N)c4c(C(F)(F)F)cc(-c5ccccc5)nc43)nn2)cc1 | inactive
Nc1nn(Cc2cn(-c3ccc(F)cc3)nn2)c2nc(-c3ccccc3)cc(C(F)(F)F)c12 | inactive

Test system: B16-F10
Experiment: Cytotoxicity against mouse B16F10 cells assessed as reduction in cell viability at 100 ug/ml after 24 hrs by MTT assay
Type: functional, cell-based
Conditions: not given

Structure (SMILES) | Activity
Cc1ccc(-n2cc(Cn3nc(N)c4c(C(F)(F)F)cc(-c5ccccc5)nc43)nn2)cc1 | inactive
Nc1nn(Cc2cn(CC(=O)Nc3cccc(Cl)c3)nn2)c2nc(-c3ccccc3)cc(C(F)(F)F)c12 | inactive
Nc1nn(Cc2cn(-c3cccc(Cl)c3)nn2)c2nc(-c3ccccc3)cc(C(F)(F)F)c12 | inactive
CCCCCCCCn1cc(Cn2nc(N)c3c(C(F)(F)F)cc(-c4ccccc4)nc32)nn1 | inactive
COc1ccc(NC(=O)Cn2cc(Cn3nc(N)c4c(C(F)(F)F)cc(-c5ccccc5)nc43)nn2)cc1 | inactive
Nc1nn(Cc2cn(-c3cccc(C(F)(F)F)c3)nn2)c2nc(-c3ccccc3)cc(C(F)(F)F)c12 | inactive
Cc1ccc(NC(=O)Cn2cc(Cn3nc(N)c4c(C(F)(F)F)cc(-c5ccccc5)nc43)nn2)cc1 | inactive
Cc1c(Br)cccc1-n1cc(Cn2nc(N)c3c(C(F)(F)F)cc(-c4ccccc4)nc32)nn1 | inactive
Nc1nn(Cc2cn(-c3ccc(Br)c(F)c3)nn2)c2nc(-c3ccccc3)cc(C(F)(F)F)c12 | inactive
Nc1nn(Cc2cn(-c3ccc([N+](=O)[O-])cc3)nn2)c2nc(-c3ccccc3)cc(C(F)(F)F)c12 | inactive
Nc1nn(Cc2cn(-c3ccccc3)nn2)c2nc(-c3ccccc3)cc(C(F)(F)F)c12 | inactive
CCCCCCn1cc(Cn2nc(N)c3c(C(F)(F)F)cc(-c4ccccc4)nc32)nn1 | inactive
COc1ccc(-n2cc(Cn3nc(N)c4c(C(F)(F)F)cc(-c5ccccc5)nc43)nn2)cc1 | inactive
Nc1nn(Cc2cn(-c3ccc(F)cc3)nn2)c2nc(-c3ccccc3)cc(C(F)(F)F)c12 | inactive
